ChEMBL document CHEMBL5214905 (J Med Chem, 2021)
The source made the active and inactive calls. The rule behind the calls is not given here.

Columns and labels:
[1] = Protein binding in Kunming mouse brain assessed as binding rate by LC-MS/MS analysis relative to control; type: ADME, tissue-based; details: read-out: PB (converted)
[2] = target: Tryptophan 2,3-dioxygenase (Homo sapiens, UniProt P48775); test: Inhibition of TDO in overexpressing human SW48 cells; type: cell-based
BCRP [3] = test: Permeability in human Caco-2 expressing BCRP cells across apical to basolateral side by measuring ratio of the final amount of the compound in donor and receiver chambers to the initial amount of the compound in the donor chamber in presence of novobiocin relative to control; type: ADME, cell-based; details: Caco-2, with novobiocin (concentration not stated)
Mus musculus [4] = test: Neuroprotective activity in MPTP induced neurodegenerative C57BL/6J mouse model blood assessed as increase in tryptophan metabolite KYNA treated with MPTP for 7 days followed by compound administration at 30 mg/kg, po by LC-MS/MS analysis; type: functional, organism-based
[5] = Toxicity in MPTP induced C57BL/6J mouse neurodegenerative model assessed as no change in lung weight treated with MPTP for 7 days followed by compound administration at 10 to 30 mg/kg, po measured upto 32 days; type: organism-based; details: in vivo, 768 h, dose 10-30 mg/kg, time < 32 day
[6] = Plasma protein binding in Kunming mouse assessed as binding rate by LC-MS/MS analysis relative to control; type: ADME; details: read-out: PPB (converted)
Mus musculus [7] = test: Neuroprotective activity in MPTP induced C57BL/6J mouse neurodegenerative model treated with MPTP for 7 days followed by compound administration at 10 to 30 mg/kg, po measured on day 6 to 12 upto 180 secs at 25 rpm by rota-rod test; type: functional, organism-based; details: dose 10-30 mg/kg, time 6-12 day
[8] = Half life in Sprague-Dawley rat plasma at 100 mg/kg, po by HPLC analysis; type: ADME, organism-based
[9] = Toxicity in MPTP induced C57BL/6J mouse neurodegenerative model assessed as no change in body weight treated with MPTP for 7 days followed by compound administration at 10 to 100 mg/kg, po measured upto 32 days; type: organism-based; details: in vivo, 768 h, dose 10-100 mg/kg, time < 32 day
[10] = target: Indoleamine 2,3-dioxygenase 1 (Homo sapiens, UniProt P14902); test: Inhibition of IDO1 in IFN-gamma induced overexpressing human HeLa cells; type: cell-based
Chain of Indoleamine 2,3-dioxygenase 1 (P14902 whole entry): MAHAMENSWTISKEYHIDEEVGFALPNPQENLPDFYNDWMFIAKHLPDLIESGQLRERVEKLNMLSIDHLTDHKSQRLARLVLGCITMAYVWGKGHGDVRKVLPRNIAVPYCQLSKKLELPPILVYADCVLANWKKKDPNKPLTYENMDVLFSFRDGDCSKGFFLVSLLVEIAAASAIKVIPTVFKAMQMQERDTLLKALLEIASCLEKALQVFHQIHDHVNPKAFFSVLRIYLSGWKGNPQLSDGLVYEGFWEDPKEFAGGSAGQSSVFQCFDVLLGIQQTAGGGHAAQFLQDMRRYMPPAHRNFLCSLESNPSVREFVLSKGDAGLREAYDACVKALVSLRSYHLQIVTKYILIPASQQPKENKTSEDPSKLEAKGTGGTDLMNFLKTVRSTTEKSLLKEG

Mus musculus [11] = test: Neuroprotective activity in MPTP induced neurodegenerative C57BL/6J mouse model assessed as decrease in tryptophan metabolite QUIN in mouse substantia nigra treated with MPTP for 7 days followed by compound administration at 30 mg/kg, po by LC-MS/MS analysis; type: functional, organism-based
Mus musculus [12] = test: Neuroprotective activity in MPTP induced C57BL/6J mouse neurodegenerative model assessed as decrease in Iba-1 expression in positive neuron cells in brain striatum treated with MPTP for 7 days followed by compound administration at 30 mg/kg, po by IHC staining method; type: functional, organism-based
[13] = Half life in Sprague-Dawley rat plasma at 100 mg/kg, iv by HPLC analysis; type: ADME, organism-based
[14] = Toxicity in MPTP induced C57BL/6J mouse neurodegenerative model assessed as no change in liver weight treated with MPTP for 7 days followed by compound administration at 10 to 30 mg/kg, po measured upto 32 days; type: organism-based; details: in vivo, 768 h, dose 10-30 mg/kg, time < 32 day
Cytochrome P450 2C9 = Cytochrome P450 2C9 (Homo sapiens, UniProt P11712); test: Inhibition of human liver microsome CYP2C9 using 4'-hydroxy diclofenac as substrate incubated for 10 mins by LC/MS/MS analysis; type: microsomes
Chain of Cytochrome P450 2C9 (P11712 whole entry): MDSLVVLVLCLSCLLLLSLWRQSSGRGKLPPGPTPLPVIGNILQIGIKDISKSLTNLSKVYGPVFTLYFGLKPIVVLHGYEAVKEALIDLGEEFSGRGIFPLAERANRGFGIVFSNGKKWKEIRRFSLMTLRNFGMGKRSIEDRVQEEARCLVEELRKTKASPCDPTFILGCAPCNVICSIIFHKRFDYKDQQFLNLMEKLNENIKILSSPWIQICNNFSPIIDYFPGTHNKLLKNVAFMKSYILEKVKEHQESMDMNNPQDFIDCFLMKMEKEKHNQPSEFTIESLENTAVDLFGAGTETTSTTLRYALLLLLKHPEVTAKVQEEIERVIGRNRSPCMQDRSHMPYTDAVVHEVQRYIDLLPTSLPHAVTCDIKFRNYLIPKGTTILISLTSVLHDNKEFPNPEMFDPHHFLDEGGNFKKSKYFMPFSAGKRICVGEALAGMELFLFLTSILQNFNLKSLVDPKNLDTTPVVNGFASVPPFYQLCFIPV

Mus musculus [15] = test: Neuroprotective activity in MPTP induced neurodegenerative C57BL/6J mouse model assessed as decrease in tryptophan metabolite NFK in mouse striatum treated with MPTP for 7 days followed by compound administration at 30 mg/kg, po by LC-MS/MS analysis; type: functional, organism-based
[16] = AUC (0 to infinity) in Sprague-Dawley rat plasma at 100 mg/kg, iv measured after 0.083 to 24 hrs by HPLC analysis; type: ADME, organism-based; set-up: time lower 0.083 hrs, dose 100 mg/kg, time upper 24 hrs, route iv
MDR1 [17] = test: Efflux ratio of apparent permeability across basolateral to apical side to apical to basolateral side in MDCKII expressing MDR1 cells; type: ADME, cell-based, Canis lupus familiaris, MDCK-II; details: dog, MDCK-MDR1
BCRP [18] = test: Permeability in human Caco-2 expressing BCRP cells across basolateral to apical side by measuring ratio of the final amount of the compound in donor and receiver chambers to the initial amount of the compound in the donor chamber relative to control; type: ADME, cell-based
[19] = Toxicity in MPTP induced C57BL/6J mouse neurodegenerative model assessed as no change in heart weight treated with MPTP for 7 days followed by compound administration at 10 to 30 mg/kg, po measured upto 32 days; type: organism-based; details: in vivo, 768 h, dose 10-30 mg/kg, time < 32 day
Mus musculus [20] = test: Neuroprotective activity in MPTP induced C57BL/6J mouse neurodegenerative model assessed as normal fiber innervation in brain treated with MPTP for 7 days followed by compound administration at 30 mg/kg, po by IHC staining method; type: functional, organism-based
Mus musculus [21] = test: Neuroprotective activity in MPTP induced neurodegenerative C57BL/6J mouse model assessed as decrease in tryptophan metabolite NFK in mouse substantia nigra treated with MPTP for 7 days followed by compound administration at 30 mg/kg, po by LC-MS/MS analysis; type: functional, organism-based
BCRP [22] = test: Permeability in human Caco-2 expressing BCRP cells across apical to basolateral side by measuring ratio of the final amount of the compound in donor and receiver chambers to the initial amount of the compound in the donor chamber relative to control; type: ADME, cell-based
BCRP [23] = test: Apparent permeability in human Caco-2 expressing BCRP cells across apical to basolateral side; type: ADME, cell-based; details: read-out: permeability
BCRP [24] = test: Apparent permeability in human Caco-2 expressing BCRP cells across basolateral to apical side in presence of novobiocin; type: ADME, cell-based; details: Caco-2, with novobiocin (concentration not stated), read-out: permeability
MDR1 [25] = test: Apparent permeability in MDCKII expressing MDR1 cells across basolateral to apical side; type: ADME, cell-based, Canis lupus familiaris, MDCK-II; details: dog, MDCK-MDR1; read-out: permeability
[26] = Volume of distribution at steady state in Sprague-Dawley rat plasma at 100 mg/kg, po measured after 0.083 to 24 hrs by HPLC analysis; type: ADME, organism-based; details: in vivo, time 0.083-24 hrs
[27] = Toxicity in MPTP induced C57BL/6J mouse neurodegenerative model assessed as no change in kidney weight treated with MPTP for 7 days followed by compound administration at 10 to 30 mg/kg, po measured upto 32 days; type: organism-based; details: in vivo, 768 h, dose 10-30 mg/kg, time < 32 day
MDR1 [28] = test: Apparent permeability in MDCKII expressing MDR1 cells across apical to basolateral side; type: ADME, cell-based, Canis lupus familiaris, MDCK-II; details: dog, MDCK-MDR1; read-out: permeability
Mus musculus [29] = test: Neuroprotective activity in MPTP induced C57BL/6J mouse neurodegenerative model assessed as increase in tyrosine hydroxylase expression in positive neuron cells in brain SNpc treated with MPTP for 7 days followed by compound administration at 30 mg/kg, po by IHC staining method; type: functional, organism-based; details: Substantia nigra pars compacta
[30] = Clearance in Sprague-Dawley rat plasma at 100 mg/kg, po measured after 0.083 to 24 hrs by HPLC analysis; type: ADME, organism-based; details: time 0.083-24 hrs
Mus musculus [31] = test: In vivo antiinflammatory activity in MPTP induced C57BL/6J mouse neurodegenerative model assessed as decrease in IL-1 beta expression treated with MPTP for 7 days followed by compound administration at 30 mg/kg, po by Western blotting analysis; type: functional, organism-based

Chain of Tryptophan 2,3-dioxygenase (P48775 whole entry): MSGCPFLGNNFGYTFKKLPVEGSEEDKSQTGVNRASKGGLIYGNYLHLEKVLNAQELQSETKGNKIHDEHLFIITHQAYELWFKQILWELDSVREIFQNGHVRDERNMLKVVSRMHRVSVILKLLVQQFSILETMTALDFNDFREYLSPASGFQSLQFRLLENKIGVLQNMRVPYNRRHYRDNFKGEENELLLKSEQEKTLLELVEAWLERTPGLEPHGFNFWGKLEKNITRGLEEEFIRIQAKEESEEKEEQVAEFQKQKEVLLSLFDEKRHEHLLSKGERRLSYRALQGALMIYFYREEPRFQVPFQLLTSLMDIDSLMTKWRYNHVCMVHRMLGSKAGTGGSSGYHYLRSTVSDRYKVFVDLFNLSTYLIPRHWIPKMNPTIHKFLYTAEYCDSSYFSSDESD

## O[C@@H]1CCCC[C@H]1CNc1cc(Br)cc2[nH]ncc12
[1]
  fraction unbound: 0.0025
[2]
  EC50: 1.07 µM
BCRP [3]
  recovery: 43.8%
Mus musculus [4]
  Activity: Active
[5]
  Activity: Non-Toxic
[6]
  fraction unbound: 0.0073
Mus musculus [7]
  Activity: Active
[8]
  half-life: 4.27 h
[9]
  Activity: Non-Toxic
[10]
  EC50: 5.5 µM
Mus musculus [11]
  Activity: Active
Mus musculus [12]
  Activity: Active
[13]
  half-life: 10.1 h
[14]
  Activity: Non-Toxic
Cytochrome P450 2C9
  IC50: 9.27 µM
Mus musculus [15]
  Activity: Active
[16]
  AUC(0-inf): 43800 ng·h/mL
MDR1 [17]
  efflux ratio: 0.77
BCRP [18]
  recovery: 74.5%
[19]
  Activity: Non-Toxic
Mus musculus [20]
  Activity: Active
Mus musculus [21]
  Activity: Active
BCRP [22]
  recovery: 42.2%
BCRP [23]
  Papp A→B: 18.8 ×10⁻⁶ cm/s
BCRP [24]
  Papp B→A: 9.97 ×10⁻⁶ cm/s
MDR1 [25]
  Papp B→A: 10.3 ×10⁻⁶ cm/s
[26]
  Vdss: 25.45 L/kg
[27]
  Activity: Non-Toxic
MDR1 [28]
  Papp A→B: 13.5 ×10⁻⁶ cm/s
Mus musculus [29]
  Activity: Active
[30]
  CL/F: 69.7 mL/min/kg
Mus musculus [31]
  Activity: Active
